Values of other authors as cited in article PMC7997453 (Pharmaceuticals, 2021).

Parameters: method as in PMID 25028625
Conditions: cited from earlier work

Clc1ccccc1C(c1ccccc1)(c1ccccc1)n1ccnc1 [Clotrimazole]
inhibition on tacrolimus metabolism, CYP3A5 non-expresser patients versus expressers: significantly greater inhibition
